{
  "source": "patent US11331269B2",
  "about": "“Methods and compositions targeting lung microbiota and its responding immune pathways for lung cancer treatment” (Massachusetts Institute of Technology, priority 2018, dated 2022)",
  "molecules": {"B1": {"name": "recombinant IL-22: recombinant mouse IL-22 (R&D Systems) (protein, UniProt Q9JJY9 34-179, looked up)", "Interleukin-22": "LPVNTRCKLEVSNFQQPYIVNRTFMLAKEASLADNNTDVRLIGEKLFRGVSAKDQCYLMKQVLNFTLEDVLLPQSDRFQPYMQEVVPFLTKLSNQLSSCHISGDDQNIQKNVRRLKETVKKLGESGEIKAIGELDLLFMSLRNACV"}, "B2": {"name": "recombinant amphiregulin: recombinant human amphiregulin (Sigma-Aldrich), EGFR ligand (protein, UniProt P15514 101-187, looked up)", "Amphiregulin": "SVRVEQVVKPPQNKTESENTSDKPKRKKKGGKNGKNRRNRKKKNPCNAEFQNFCIHGECKYIEHLEAVTCKCQQEYFGERCGEKSMK"}},
  "key": {"IL-17A": {"tested_on": "IL-17A", "test": "IL-17A ELISA in BALF or serum of KP mice", "assay_type": "in vivo, mouse", "conditions": "antibiotics in drinking water", "procedure": "IL-17 levels in serum or bronchoalveolar lavage fluid were measured using a mouse IL-17A ELISA kit (eBioscience) according to the manufacturer's instructions.\nIL-17 levels were measured using a mouse IL-17A ELISA kit (eBioscience) according to the manufacturer's instructions.\nIL-17A levels were measured using a mouse IL-17A ELISA kit (eBioscience) according to the manufacturer's instructions."}, "[1]": {"tested_on": "lung adenocarcinoma in KP mice", "test": "Tumor development (tumor burden/grade by histology) in autochthonous KP GEM model of lung adenocarcinoma", "conditions": "SPF KP mice, metronidazole alone (1 g/L) in drinking water starting 5 weeks post tumor initiation (FIG. 2E)", "text": "The genetically-engineered mouse (GEM) model of human LUAD has previously been described (DuPage, et al.). In this model, the mice harbor conditional alleles of Kras^LSL-G12D and p53^flox/flox (KP mice). Upon intratracheal infection with adenoviral vectors expressing the Cre-recombinase under the control of the Sftpc promoter, oncogenic KrasG12D is activated and the tumor suppressor p53 is deleted in lung epithelial cells to induce lung adenoma and adenocarcinoma.\nGerm-free KP mice were housed in gnotobiotic isolators, which were sampled every 2 weeks and confirmed negative for bacterial and fungal contaminants by culture, fecal Gram stain, and PCR using universal 16S rRNA primers. […]\nTumor-bearing lung lobes and a portion of the spleen were fixed in 4% paraformaldehyde overnight and embedded in paraffin. […] Digitally scanned images of H&E or Ki67-stained slides were created with the Aperio ScanScope AT2 at 20× magnification and analyzed with the Aperio's WebScope software. For tumor burden quantification, tumor regions were outlined and the percentage of tumor area relative to total lung area was calculated for each mouse. For Ki67 index, tumor cells were classified based on the intensity of the nuclear Ki67 staining from 0 to 3+ by using a built-in Nuclear algorithm in the Webscope, and the percentage of nuclei with intense nuclear staining (3+) in total nuclei was calculated. […]"}, "[2]": {"tested_on": "IL-17 producing γδ T cells", "test": "Flow cytometry of IL-17 producing γδ T cells in tumor-bearing lung", "assay_type": "in vivo, mouse", "conditions": "KP mice, antibiotics in drinking water", "procedure": "Mice were injected retro-orbitally with a PE-CF594 conjugated anti-CD45 antibody (30-F11, BD Bioscience) 2 minutes prior to euthanasia to label the immune cells in the circulation. Lungs were collected, cut into small pieces, and digested with 125 U/mL collagenase IV (Worthington Biochemical) and 40 U/mL DNase I (Roche) for 30 minutes at 37° C. Dissociated lung tissue was then filtered with a 100 μm cell strainer. Spleen and lymph node samples were ground and passed through a 100 μm cell strainer. After blocking FcgRIII/II with an anti-CD16/CD32 mAb (eBioscience), single cell suspensions were stained with the following antibodies: CD45.2 (104), CD45.1 (A20), Ly6G (1A8), CD11b (M1/70), TCRβ (H57-597), TCRγδ (GL3 or UC7-13D5), CD3 (17A2), CD4 (RM4-5), CD8 (53-6.7), Vγ1 (Vg1.1, 2.11), Vγ4 (Vγ2, UC3-10A6), IFN-γ (XMG1.2), IL-17A (TC11-18H10.1), TNF-α (MP6-XT22), IL-17F (ebio18F10), CD44 (IM7), CD27 (LG.3A10), CD69 (H1.2F3), PD-1 (29F. 1A12), PD-L1 (10F.9G2), T-bet (eBio4B10), RORγt (B2D), PLZF (Mags.21F7) and Ki67 (B56) purchased from eBioscience, BD or Biolegend. […] Flow cytometry was performed on the LSR II or LSRFortessa (BD), and data were analyzed by the FlowJo software (Treestar). […]\nFlow cytometry and FACS was performed as described above in Example 3. […] Flow cytometry was performed on the LSR II or LSRFortessa (BD), and data were analyzed by the FlowJo software (Treestar). […]"}, "[3]": {"tested_on": "bacterial abundance in the gut", "test": "Fecal bacterial load by 16S rDNA-based qPCR", "assay_type": "in vivo, mouse", "conditions": "SPF KP mice, metronidazole alone in drinking water", "experimental": "Fecal pellets were collected from the colon at the time of tissue harvest. BALF and fecal samples were processed for DNA isolation using a previously established protocol (Palm, et al., Cell. 158(5):1000-1010 (2014); Turnbaugh, et al., Nature. 457(7228):480-4 (2009)). […] E. coli genomic DNA was used as a standard, with samples at 1, 0.1, 0.01, and 0.001 ng per reaction used to create a standard curve."}, "[4]": {"tested_on": "KP tumor-derived cell lines", "test": "In vitro cell proliferation of tumor cell lines derived from primary lung tumors of KP mice", "assay_type": "cell-based, mouse", "conditions": "live cells 72 hours post treatment", "procedure": "Tumor cell lines were derived from primary lung tumors of KP mice, and maintained in DMEM medium (Gibco) supplemented with 10% FBS (Sigma). Cells were serum-starved for 24 hours (1% FBS) before treated with recombinant human amphiregulin (Sigma-Aldrich) or recombinant mouse IL-22 (R&D Systems) at the indicated dose, or left untreated as controls. The number of live cells was determined 72 hours post treatment by counting the Trypan Blue (Gibco) negative cells or through the CellTiter-Glo Luminescent Cell Viability Assay (Promega) according to the manufacturer's instructions."}},
  "data": [
    {"molecule": "Cc1ncc([N+](=O)[O-])n1CCO", "note": "[metronidazole]", "values": [
      {"measurement": "IL-17A levels in the BALF or serum", "setting": "IL-17A", "value": "lower IL-17A levels"},
      {"measurement": "tumor growth in the lung (tumor burden)", "setting": "[1]", "value": "effectively suppressed tumor growth in the lung"},
      {"measurement": "abundance of IL-17 producing γδ T cells in the tumor-bearing lung", "setting": "[2]", "value": "dramatically decreased"},
      {"measurement": "overall bacterial abundance in the gut", "setting": "[3]", "value": "without substantially reducing the overall bacterial abundance in the gut"}
    ]},
    {"molecule": "B1", "values": [
      {"measurement": "tumor cell proliferation in vitro", "setting": "[4]; recombinant mouse IL-22, serum-starved KP tumor cell lines", "value": "stimulated tumor cell proliferation in vitro"}
    ]},
    {"molecule": "B2", "values": [
      {"measurement": "proliferation of KP tumor-derived cell lines", "setting": "[4]; recombinant human amphiregulin, serum-starved cells", "value": "promoted proliferation of KP tumor-derived cell lines in a dose-dependent fashion"}
    ]}
  ]
}
